Test system: 20S proteasome core particle (20S CP)
Assay: FRET peptide hydrolysis assay, percent stimulation over basal
Format: biochemical, Homo sapiens

CCCCC/C=C\C/C=C\CCCCCCCC(=O)O [compound 15]
Stimulation: 160%

From publication PMC6348054 (Bioorganic & medicinal chemistry letters, 2018)
